Literature values as cited in patent US20090258907A1, “COMPOUNDS USEFUL AS INHIBITORS OF ROCK KINASES” (ABBOTT LABORATORIES, priority 2008, published 2009).

Legend:
[1] = Zucker obese rats, 4 weeks
[2] = mouse, in vivo
[3] = CNS ischemic conditions
[4] = tested on: vascular smooth muscle cell (VSMC); conditions: vein grafts, weeks following the procedure
[5] = OLETF rats, high dose
[6] = experimental myocardial infarction (MI); rat chronic hypertension induced congestive heart failure

O=S(=O)(c1cccc2cnccc12)N1CCCNCC1 [fasudil]
blood pressure, glucose and lipid metabolism, insulin signalling, endothelial dysfunction [1]: reduced blood pressure, corrected glucose and lipid metabolism, improved insulin signalling and endothelial dysfunction
efficacy in animal models of epileptogenesis [2]: efficacy
cerebral blood flow and neuroprotection [3]: increased cerebral blood flow and was neuroprotective
VSMC apoptosis [4]: enhanced
intimal thickening and VSMC proliferation [4]: significantly suppressed
development of diabetes, obesity, dyslipidemia; serum adiponectin [5]: completely suppressed the development of diabetes, obesity, and dyslipidemia and increased serum adiponectin levels
effect on ischemia-reperfusion injury, myocardial infarct size and myocardial fibrosis [6]: decrease ischemia-reperfusion injury, myocardial infarct size, and myocardial fibrosis
